Measured values: patent US20240269350A1, “I[…] FOR TREATING CENTRAL NERVOUS SYSTEM DISORDERS” (priority 2021, published 2024)
Read-outs that look alike come from different tables or passages of the source.

How the values were obtained:
[1] = approved oral, patch or i.v. administration; cited from earlier work
[2] = Oral rivastigmine pharmacokinetics and estimated delivery to CSF (Exelon label); type: in vivo; conditions: for daily dose delivered to CSF: plasma volume 2750 mL, CSF volume 150 mL
Protocol: Drug coating and formulation development. The absolute bioavailability of oral rivastigmine is approximately 40%, and the AUC1-12h cerebral spinal fluid (CSF)/plasma ratio is about 40% (Novartis Exelon® Capsules and Oral Solution Prescribing Information). An estimated 0.87% of the rivastigmine oral dose is absorbed and distributed into the CSF. Thus, the daily CSF uptake of this drug is estimated to be between 26-105 μg. As a starting point for the formulation development, we will first target to formulate a matrix loaded with rivastigmine which will be released over 30 days in a near linear manner. Bilateral administration of the rivastigmine matrix would result in approximately 21-107 μg rivastigmine delivered to CSF/day, assuming a CSF bioavailability between 10-50%.
For oral administration, delivery, an absolute bioavailability of Rivastigmine is about 40% and a mean AUC (area under the curve) 1-12 hr CSF/Plasma is about 40% (Exelon Label). The daily doses delivered to CSF are 26 μg/day, 52 μg/day, 79 μg/day, and 105 μg/day for the oral doses, equating to 1.5 mg BID, 3 mg BID, 4.5 mg BID, and 6 mg BID, respectively. For this estimation, a plasma volume of 2750 mL and a CSF volume of 150 mL are used.

[3] = oral administration, cited from earlier work; for AUC1-12h cerebral spinal fluid (CSF)/plasma ratio: mean
[4] = tartrate salt form; cited from earlier work

| Compound | Side effects [1] | daily dose delivered to CSF ([2]; oral 1.5 mg BID) [µg/day] | daily dose delivered to CSF ([2]; oral 3 mg BID) [µg/day] | daily dose delivered to CSF ([2]; oral 4.5 mg BID) [µg/day] | daily dose delivered to CSF ([2]; oral 6 mg BID) [µg/day] | fraction of oral dose absorbed and distributed into the CSF ([2]; oral dose, estimated) [%] | daily CSF uptake ([2]; oral dosing, estimated) [µg] | AUC1-12h cerebral spinal fluid (CSF)/plasma ratio [3] | AUC1-12h cerebral spinal fluid (CSF)/plasma ratio ([3]; listed as rivastigmine) | absolute bioavailability [3] | absolute bioavailability ([3]; listed as rivastigmine) | water solubility [4] |
| --- | --- | --- | --- | --- | --- | --- | --- | --- | --- | --- | --- | --- |
| CC12CC3CC(C)(C1)CC(N)(C3)C2 [Memantine] | Headache, constipation, | – | – | – | – | – | – | – | – | – | – | – |
| CCN(C)C(=O)Oc1cccc([C@H](C)N(C)C)c1 [Rivastigmine] | – | 26 | 52 | 79 | 105 | 0.87 | 26 to 105 | about 40% | approximately 40% | about 40% | approximately 40% | highly water-soluble |
